{"source": "paper PMC11098091", "about": "(Nature chemical biology, 2022)", "key": {"[1]": {"system": "mice", "settings": "mouse, in vivo; cited from earlier work"}, "[2]": {"molecular_target": "T1, μOR Q124^2.60A mutant (Homo sapiens, UniProt P35372, Q126A)", "T1 sequence (P35372 whole entry Q126A)": "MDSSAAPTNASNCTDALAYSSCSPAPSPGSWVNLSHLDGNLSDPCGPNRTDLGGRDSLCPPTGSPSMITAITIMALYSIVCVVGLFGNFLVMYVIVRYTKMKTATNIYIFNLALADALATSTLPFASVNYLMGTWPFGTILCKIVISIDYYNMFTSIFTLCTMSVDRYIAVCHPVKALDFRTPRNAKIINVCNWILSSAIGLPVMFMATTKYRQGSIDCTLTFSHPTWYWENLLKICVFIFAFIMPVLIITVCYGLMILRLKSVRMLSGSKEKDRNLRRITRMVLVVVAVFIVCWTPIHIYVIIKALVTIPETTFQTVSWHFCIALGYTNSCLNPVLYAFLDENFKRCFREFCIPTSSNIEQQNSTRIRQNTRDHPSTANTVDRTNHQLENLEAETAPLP", "format": "cell-based"}, "[3]": {"molecular_target": "human μOR (GoB) (Homo sapiens, UniProt P35372)", "sequence (P35372 whole entry)": "as the sequence (P35372 whole entry Q126A) above, with A126Q counted along it", "format": "cell-based", "settings": "read-out: potency at GoB"}, "[4]": {"molecular_target": "human μOR (β-arrestin-1, β-arrestin-2) (Homo sapiens, UniProt P35372)", "sequence (P35372 whole entry)": "as the sequence (P35372 whole entry Q126A) above, with A126Q counted along it", "format": "cell-based"}, "[5]": {"molecular_target": "T2, μOR Y326^7.43F mutant (Homo sapiens, UniProt P35372, Y328F)", "T2 sequence (P35372 whole entry Y328F)": "as the sequence (P35372 whole entry Q126A) above, with A126Q, Y328F counted along it", "format": "cell-based"}, "[6]": {"molecular_target": "T3, wild type human μOR (Homo sapiens, UniProt P35372)", "T3 sequence (P35372 whole entry)": "as the sequence (P35372 whole entry Q126A) above, with A126Q counted along it", "format": "cell-based"}, "[7]": {"molecular_target": "T1, μOR Q124^2.60A mutant", "format": "cell-based", "remark": "listed apart in the source"}, "[8]": {"molecular_target": "human μOR (Gz) (Homo sapiens, UniProt P35372)", "sequence (P35372 whole entry)": "as the sequence (P35372 whole entry Q126A) above, with A126Q counted along it", "format": "cell-based", "settings": "read-out: potency at Gz"}, "[9]": {"molecular_target": "T2, μOR Y326^7.43F mutant", "format": "cell-based", "remark": "listed apart in the source"}, "[10]": {"molecular_target": "T3, wild type human μOR", "format": "cell-based", "remark": "listed apart in the source"}, "[11]": {"molecular_target": "human μOR (Homo sapiens, UniProt P35372)", "sequence (P35372 whole entry)": "as the sequence (P35372 whole entry Q126A) above, with A126Q counted along it", "format": "cell-based"}}}
{"smiles": "CC[C@@H]1CN2CC[C@]3(Nc4cccc(OC)c4C3=O)[C@@H]2C[C@@H]1/C(=C\\OC)C(=O)OC", "note": "[MP, Mitragynine pseudoindoxyl]", "values": [{"measurement": "development of antinociceptive tolerance", "setting": "[1]", "result": "much more slowly"}, {"measurement": "potency relative to morphine", "setting": "[1]", "result": "approximately ten-fold more potent"}, {"measurement": "respiratory depression", "setting": "[1]", "result": "did not cause respiratory depression"}, {"measurement": "reduction of maximal Gi response by the Q124A mutation", "setting": "[2]", "result": "more than half"}, {"measurement": "EC50", "setting": "[3]", "result": 3.2, "unit": "nM"}, {"measurement": "recruitment of β-arrestins", "setting": "[4]", "result": "no detectable recruitment"}, {"measurement": "reduction of maximal β-arrestin 2 recruitment by the Y326F mutation", "setting": "[5]", "result": "eliminated detectable"}, {"measurement": "recruitment of β-arrestins", "setting": "[6]", "result": "very little detectable activity"}, {"measurement": "arrestin recruitment at the Q124A mutant", "setting": "[7]", "result": "completely abolishes"}, {"measurement": "EC50", "setting": "[8]", "result": 0.9, "unit": "nM"}, {"measurement": "reduction of maximal Gi1 activation by the Y326F mutation", "setting": "[9]", "result": 68, "unit": "%"}, {"measurement": "potency in G protein dissociation assays", "setting": "[10]", "result": "as potent as DAMGO"}, {"measurement": "efficacy at Gi/o/z subtypes compared to DAMGO", "setting": "[11]", "result": "partial agonist"}, {"measurement": "potency spread across G protein subtypes", "setting": "[11]", "result": "~ 3 fold"}]}
